“And” between values parts separate entries of the source, which are not always exact repeats. Identical values can stand only once.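 Values below derive from 48-hour exposures of cells grown in 96-well plates, with endpoints linearly interpolated between the two concentrations bracketing the appropriate inhibition level. GI50: concentration for 50% inhibition of growth. TGI is the concentration that stops growth completely.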
How the values were obtained:
Test in all cases: NCI anticancer screen, dose series, 48 h
NCI-H23 lung = tested on: NCI-H23 lung
SF-539 CNS = tested on: SF-539 CNS
TK-10 renal = tested on: TK-10 renal
SW-620 colon = tested on: SW-620 colon
HOP-62 NSCLC = tested on: HOP-62 NSCLC
MALME-3M melanoma = tested on: MALME-3M melanoma
UO-31 renal = tested on: UO-31 renal
K-562 leukemia = tested on: K-562 leukemia
MDA-MB-231 breast = tested on: MDA-MB-231 breast
RXF 393 renal = tested on: RXF 393 renal
OVCAR-4 ovarian = tested on: OVCAR-4 ovarian
CAKI-1 renal = tested on: CAKI-1 renal

CCOC(=O)c1cnc(-n2[nH]c(C)c(CCO)c2=O)[nH]c1=O
TGI (NCI-H23 lung): > 100 µM
TGI (SF-539 CNS): > 100 µM
TGI (TK-10 renal): > 100 µM
TGI (SW-620 colon): > 100 µM
TGI (HOP-62 NSCLC): > 100 µM
TGI (MALME-3M melanoma): > 100 µM
TGI (UO-31 renal): > 100 µM
TGI (K-562 leukemia): > 100 µM
TGI (MDA-MB-231 breast): > 100 µM
TGI (RXF 393 renal): > 100 µM
TGI (OVCAR-4 ovarian): > 100 µM
TGI (CAKI-1 renal): > 100 µM

O=C1C2CCCCC2C(=O)N1n1c(Cc2ccc(Cl)cc2)n[nH]c1=O (configuration not stated)
TGI (NCI-H23 lung): > 100 µM
TGI (SF-539 CNS): > 100 µM
TGI (TK-10 renal): > 100 µM
TGI (SW-620 colon): > 100 µM
TGI (HOP-62 NSCLC): > 100 µM
TGI (MALME-3M melanoma): > 100 µM
TGI (UO-31 renal): > 100 µM
TGI (K-562 leukemia): > 100 µM
TGI (MDA-MB-231 breast): > 100 µM
TGI (RXF 393 renal): > 100 µM
TGI (OVCAR-4 ovarian): > 100 µM
TGI (CAKI-1 renal): > 100 µM

CCOC(=O)c1cccc(NC(=O)CCl)c1
TGI (NCI-H23 lung): 13.1 µM
TGI (SF-539 CNS): 5.78 µM
TGI (TK-10 renal): 15 µM
TGI (SW-620 colon): 16.5 µM
TGI (HOP-62 NSCLC): 6.15 µM
TGI (MALME-3M melanoma): 18.5 µM
TGI (UO-31 renal): 13.7 µM
TGI (K-562 leukemia): 29 µM
TGI (MDA-MB-231 breast): 14.5 µM
TGI (RXF 393 renal): 9.9 µM
TGI (OVCAR-4 ovarian): 8.31 µM
TGI (CAKI-1 renal): 3.42 µM

C=CCC1(O)c2ccccc2C(=O)c2c(O)ccc(O)c21 (configuration not stated)
TGI (NCI-H23 lung): 56 µM
TGI (SF-539 CNS): > 33.7 µM
TGI (TK-10 renal): 47.1 µM
TGI (SW-620 colon): > 100 µM
TGI (HOP-62 NSCLC): > 86.8 µM
TGI (MALME-3M melanoma): 28.8 µM
TGI (UO-31 renal): 52.6 µM
TGI (K-562 leukemia): > 100 µM
TGI (MDA-MB-231 breast): 26 µM
TGI (RXF 393 renal): 21.4 µM
TGI (OVCAR-4 ovarian): > 82.5 µM
TGI (CAKI-1 renal): 50.7 µM

Cc1ccc(C2CC(=O)CC(c3ccc(C)cc3)C23C(=O)NC(=O)NC3=O)cc1 (configuration not stated)
TGI (NCI-H23 lung): > 100 µM
TGI (SF-539 CNS): > 100 µM
TGI (TK-10 renal): > 100 µM
TGI (SW-620 colon): > 100 µM
TGI (HOP-62 NSCLC): > 100 µM
TGI (MALME-3M melanoma): > 100 µM
TGI (UO-31 renal): > 100 µM
TGI (K-562 leukemia): > 100 µM
TGI (MDA-MB-231 breast): > 100 µM
TGI (RXF 393 renal): > 100 µM
TGI (OVCAR-4 ovarian): > 100 µM
TGI (CAKI-1 renal): > 100 µM

Cc1ccc(C)n1-c1ccccc1C1SCCCS1
TGI (NCI-H23 lung): > 100 µM
TGI (SF-539 CNS): > 100 µM
TGI (TK-10 renal): > 100 µM
TGI (SW-620 colon): > 100 µM
TGI (HOP-62 NSCLC): > 100 µM
TGI (MALME-3M melanoma): > 100 µM
TGI (UO-31 renal): > 100 µM
TGI (K-562 leukemia): > 100 µM
TGI (MDA-MB-231 breast): > 100 µM
TGI (RXF 393 renal): > 100 µM
TGI (OVCAR-4 ovarian): > 100 µM
TGI (CAKI-1 renal): > 100 µM

O=C1Oc2ccccc2C(=O)/C1=C/N1C(=O)N/C(=C\c2ccccc2O)C1=O
TGI (NCI-H23 lung): > 100 µM
TGI (SF-539 CNS): > 100 µM
TGI (TK-10 renal): > 100 µM
TGI (SW-620 colon): > 100 µM
TGI (HOP-62 NSCLC): > 100 µM
TGI (MALME-3M melanoma): > 100 µM
TGI (UO-31 renal): > 100 µM
TGI (K-562 leukemia): > 100 µM
TGI (MDA-MB-231 breast): > 100 µM
TGI (RXF 393 renal): > 100 µM
TGI (OVCAR-4 ovarian): > 100 µM
TGI (CAKI-1 renal): > 100 µM

O=c1cc(CNC2CCCC2)[nH]c(=O)[nH]1
TGI (NCI-H23 lung): > 100 µM
TGI (SF-539 CNS): > 100 µM
TGI (TK-10 renal): > 100 µM
TGI (SW-620 colon): > 100 µM
TGI (HOP-62 NSCLC): > 100 µM
TGI (MALME-3M melanoma): > 100 µM
TGI (UO-31 renal): > 100 µM
TGI (K-562 leukemia): > 100 µM
TGI (MDA-MB-231 breast): > 100 µM
TGI (RXF 393 renal): > 100 µM
TGI (OVCAR-4 ovarian): > 100 µM
TGI (CAKI-1 renal): > 100 µM

O=c1c2ccccc2oc2nc3n(c(=O)c12)CCCS3
TGI (NCI-H23 lung): > 100 µM
TGI (SF-539 CNS): > 100 µM
TGI (TK-10 renal): > 100 µM
TGI (SW-620 colon): > 100 µM
TGI (HOP-62 NSCLC): > 100 µM
TGI (MALME-3M melanoma): > 100 µM
TGI (UO-31 renal): 29.2 µM
TGI (K-562 leukemia): > 100 µM
TGI (MDA-MB-231 breast): > 100 µM
TGI (RXF 393 renal): > 100 µM
TGI (OVCAR-4 ovarian): > 100 µM
TGI (CAKI-1 renal): > 100 µM

O=C1NC(N/N=C\C(O)C(O)C(O)CO)=N/C1=C/c1ccccc1 (configuration not stated)
TGI (NCI-H23 lung): > 100 µM
GI50 (SF-539 CNS): > 100 µM and 34.3 µM
TGI (SF-539 CNS): > 100 µM
TGI (TK-10 renal): > 100 µM
GI50 (SW-620 colon): > 100 µM and 34 µM
TGI (SW-620 colon): > 100 µM
TGI (HOP-62 NSCLC): > 100 µM
TGI (MALME-3M melanoma): > 100 µM
TGI (UO-31 renal): > 100 µM
GI50 (K-562 leukemia): > 100 µM and 22.7 µM
TGI (K-562 leukemia): > 100 µM
TGI (MDA-MB-231 breast): > 100 µM
TGI (RXF 393 renal): > 100 µM
GI50 (OVCAR-4 ovarian): 84.1 µM and 23.4 µM
TGI (OVCAR-4 ovarian): > 100 µM and 79.8 µM
TGI (CAKI-1 renal): > 100 µM

O=C1CSC2(CC(/C=C/c3ccccc3)=NN2c2cccc(S(=O)(=O)O)c2)N1c1nc2ccccc2s1 (configuration not stated)
TGI (NCI-H23 lung): 56.7 µM
TGI (SF-539 CNS): > 100 µM
TGI (TK-10 renal): 46.9 µM
TGI (SW-620 colon): > 100 µM
TGI (MALME-3M melanoma): > 100 µM
TGI (UO-31 renal): 35.7 µM
TGI (K-562 leukemia): > 100 µM
TGI (MDA-MB-231 breast): 47.8 µM
TGI (RXF 393 renal): 51.7 µM
TGI (OVCAR-4 ovarian): 54.1 µM
TGI (CAKI-1 renal): > 100 µM

CC(C)(C)OC(=O)CN1CCNCCNCC1
TGI (NCI-H23 lung): > 100 µM
TGI (SF-539 CNS): > 100 µM
TGI (TK-10 renal): > 100 µM
TGI (SW-620 colon): > 100 µM
TGI (HOP-62 NSCLC): > 100 µM
TGI (MALME-3M melanoma): > 100 µM
TGI (UO-31 renal): > 100 µM
TGI (K-562 leukemia): > 100 µM
TGI (MDA-MB-231 breast): > 100 µM
TGI (RXF 393 renal): > 100 µM
TGI (OVCAR-4 ovarian): > 100 µM
TGI (CAKI-1 renal): > 100 µM

c1ccc(CNC2CC(NCc3ccccn3)CC(NCc3ccccn3)C2)nc1 (configuration not stated)
GI50 (NCI-H23 lung): 2.7 µM and 6.69 µM and 1.99 µM
TGI (NCI-H23 lung): 7.38 µM and 23.4 µM and 3.89 µM
GI50 (SF-539 CNS): 1.98 µM and 4.74 µM and 3.22 µM
TGI (SF-539 CNS): 10.1 µM and 10.7 µM and 15.7 µM
TGI (TK-10 renal): 17.8 µM and 10.8 µM
TGI (SW-620 colon): 41.7 µM and 25 µM and 32.9 µM
TGI (HOP-62 NSCLC): 20.8 µM and 20.4 µM and 23 µM
TGI (MALME-3M melanoma): 10.4 µM and 8.6 µM and 15.8 µM
TGI (UO-31 renal): 70.8 µM and > 25 µM and > 100 µM
GI50 (K-562 leukemia): 3.45 µM and 12.4 µM and 3.71 µM
TGI (K-562 leukemia): 34.6 µM and 25 µM and 28.3 µM
GI50 (MDA-MB-231 breast): 2.13 µM and 5.66 µM and 2.08 µM
TGI (MDA-MB-231 breast): 5.21 µM and 12.5 µM and 4.56 µM
GI50 (RXF 393 renal): 1.98 µM and 4.41 µM
TGI (RXF 393 renal): 4.11 µM and 9.03 µM and 3.83 µM
TGI (OVCAR-4 ovarian): 9.26 µM and 8.37 µM and 40.9 µM
GI50 (CAKI-1 renal): 4.6 µM and 16.3 µM and 4.35 µM
TGI (CAKI-1 renal): 28 µM and 25 µM and 17.2 µM

C=C(C)[C@@H]1CC[C@]2(C(=O)O)CC[C@]3(C)[C@H](CC[C@@H]4[C@@]5(C)CC(=O)C(C)(C)[C@@H]5CC[C@]43C)[C@@H]12
TGI (NCI-H23 lung): > 25 µM
TGI (SF-539 CNS): 14.7 µM
TGI (TK-10 renal): > 25 µM
TGI (SW-620 colon): > 25 µM
TGI (HOP-62 NSCLC): > 25 µM
TGI (MALME-3M melanoma): > 25 µM
TGI (UO-31 renal): 16.4 µM
TGI (K-562 leukemia): > 25 µM
TGI (MDA-MB-231 breast): 14.3 µM
TGI (RXF 393 renal): > 25 µM
TGI (OVCAR-4 ovarian): > 25 µM
TGI (CAKI-1 renal): > 25 µM

CN(C)c1nc2sc3c(c2c(=O)o1)CCCC3
TGI (NCI-H23 lung): > 100 µM
TGI (SF-539 CNS): > 100 µM
TGI (TK-10 renal): > 100 µM
TGI (SW-620 colon): > 100 µM
TGI (HOP-62 NSCLC): > 100 µM
TGI (MALME-3M melanoma): > 100 µM
TGI (UO-31 renal): > 100 µM
TGI (K-562 leukemia): > 100 µM
TGI (MDA-MB-231 breast): > 100 µM
TGI (RXF 393 renal): > 100 µM
TGI (OVCAR-4 ovarian): > 100 µM
TGI (CAKI-1 renal): > 100 µM

O=C(O)[C@H]1[C@@H](C2CCCCC2)O[C@@H](C2CCCCC2)O[C@H]1C(F)(F)F
TGI (NCI-H23 lung): 42.6 µM
TGI (SF-539 CNS): > 100 µM
TGI (TK-10 renal): > 100 µM
TGI (SW-620 colon): 52.8 µM
TGI (HOP-62 NSCLC): 50.6 µM
TGI (MALME-3M melanoma): 73.3 µM
TGI (UO-31 renal): 66.2 µM
TGI (K-562 leukemia): > 100 µM
TGI (MDA-MB-231 breast): 36.2 µM
TGI (RXF 393 renal): 48.4 µM
TGI (OVCAR-4 ovarian): > 100 µM
TGI (CAKI-1 renal): 36.4 µM

CN1C/C(=C\c2cccs2)C2=NC(=S)NC(c3cccs3)C2C1 (configuration not stated)
TGI (NCI-H23 lung): > 100 µM
TGI (TK-10 renal): > 100 µM
TGI (SW-620 colon): > 100 µM
TGI (HOP-62 NSCLC): > 100 µM
TGI (MALME-3M melanoma): > 100 µM
TGI (UO-31 renal): > 100 µM
TGI (K-562 leukemia): > 100 µM
TGI (MDA-MB-231 breast): > 100 µM
TGI (RXF 393 renal): > 100 µM
TGI (OVCAR-4 ovarian): > 100 µM
TGI (CAKI-1 renal): > 100 µM
